# Publication PMC9743148 (Annals of oncology : official journal of the European …, 2020)
# Tested on: patients with advanced solid tumors
# Experiment: Treatment-emergent adverse events
# Format: in vivo, human
# Details: Combined t.i.w. cohorts (n = 42)
smiles,measurement,value
C=CC(=O)N1CC[C@H](n2nc(C#Cc3cc(OC)cc(OC)c3)c3c(N)ncnc32)C1 [futibatinib],"AST increased TEAE, Grade 1",1 (2) n (%)
same,"AST increased TEAE, Grade 2",3 (7) n (%)
same,"AST increased TEAE, Grade 3",0 (0) n (%)
same,"AST increased TEAE, Grade 4",0 (0) n (%)
same,"Abdominal pain TEAE, Any grade",8 (19) n (%)
same,"Abdominal pain TEAE, Grade 1",4 (10) n (%)
same,"Abdominal pain TEAE, Grade 2",2 (5) n (%)
same,"Abdominal pain TEAE, Grade 3",2 (5) n (%)
same,"Abdominal pain TEAE, Grade 4",0 (0) n (%)
same,"Alopecia TEAE, Any grade",4 (10) n (%)
same,"Alopecia TEAE, Grade 1",4 (10) n (%)
same,"Alopecia TEAE, Grade 2",0 (0) n (%)
same,"Alopecia TEAE, Grade 3",0 (0) n (%)
same,"Alopecia TEAE, Grade 4",0 (0) n (%)
same,"Anemia TEAE, Any grade",13 (31) n (%)
same,"Anemia TEAE, Grade 1",2 (5) n (%)
same,"Anemia TEAE, Grade 2",8 (19) n (%)
same,"Anemia TEAE, Grade 3",3 (7) n (%)
same,"Anemia TEAE, Grade 4",0 (0) n (%)
same,"Any TEAE, Any grade",42 (100) n (%)
same,"Any TEAE, Grade 1",3 (7) n (%)
same,"Any TEAE, Grade 2",14 (33) n (%)
same,"Any TEAE, Grade 3",20 (48) n (%)
same,"Any TEAE, Grade 4",2 (5) n (%)
same,"Any treatment-related AE, Any grade",37 (88) n (%)
same,"Any treatment-related AE, Grade 1",12 (29) n (%)
same,"Any treatment-related AE, Grade 2",14 (33) n (%)
same,"Any treatment-related AE, Grade 3",10 (24) n (%)
same,"Any treatment-related AE, Grade 4",1 (2) n (%)
same,"Asthenia TEAE, Any grade",9 (21) n (%)
same,"Asthenia TEAE, Grade 1",5 (12) n (%)
same,"Asthenia TEAE, Grade 2",4 (10) n (%)
same,"Asthenia TEAE, Grade 3",0 (0) n (%)
same,"Asthenia TEAE, Grade 4",0 (0) n (%)
same,"Back pain TEAE, Any grade",3 (7) n (%)
same,"Back pain TEAE, Grade 1",2 (5) n (%)
same,"Back pain TEAE, Grade 2",1 (2) n (%)
same,"Back pain TEAE, Grade 3",0 (0) n (%)
same,"Back pain TEAE, Grade 4",0 (0) n (%)
same,"Constipation TEAE, Any grade",11 (26) n (%)
same,"Constipation TEAE, Grade 1",10 (24) n (%)
same,"Constipation TEAE, Grade 2",1 (2) n (%)
same,"Constipation TEAE, Grade 3",0 (0) n (%)
same,"Constipation TEAE, Grade 4",0 (0) n (%)
same,"Cough TEAE, Any grade",2 (5) n (%)
same,"Cough TEAE, Grade 1",2 (5) n (%)
same,"Cough TEAE, Grade 2",0 (0) n (%)
same,"Cough TEAE, Grade 3",0 (0) n (%)
same,"Cough TEAE, Grade 4",0 (0) n (%)
same,"Decreased appetite TEAE, Any grade",9 (21) n (%)
same,"Decreased appetite TEAE, Grade 1",5 (12) n (%)
same,"Decreased appetite TEAE, Grade 2",3 (7) n (%)
same,"Decreased appetite TEAE, Grade 3",1 (2) n (%)
same,"Decreased appetite TEAE, Grade 4",0 (0) n (%)
same,"Diarrhea TEAE, Any grade",17 (40) n (%)
same,"Diarrhea TEAE, Grade 1",12 (29) n (%)
same,"Diarrhea TEAE, Grade 2",5 (12) n (%)
same,"Diarrhea TEAE, Grade 3",0 (0) n (%)
same,"Diarrhea TEAE, Grade 4",0 (0) n (%)
same,"Dose reduction because of TEAE, Any grade",4 (10) n (%)
same,"Dose reduction because of TEAE, Grade 1",0 (0) n (%)
same,"Dose reduction because of TEAE, Grade 2",3 (7) n (%)
same,"Dose reduction because of TEAE, Grade 3",1 (2) n (%)
same,"Dose reduction because of TEAE, Grade 4",0 (0) n (%)
same,"Dosing delay/interruption because of TEAE, Any grade",21 (50) n (%)
same,"Dosing delay/interruption because of TEAE, Grade 1",0 (0) n (%)
same,"Dosing delay/interruption because of TEAE, Grade 2",6 (14) n (%)
same,"Dosing delay/interruption because of TEAE, Grade 3",14 (33) n (%)
same,"Dosing delay/interruption because of TEAE, Grade 4",1 (2) n (%)
same,"Dry eye TEAE, Any grade",2 (5) n (%)
same,"Dry eye TEAE, Grade 1",2 (5) n (%)
same,"Dry eye TEAE, Grade 2",0 (0) n (%)
same,"Dry eye TEAE, Grade 3",0 (0) n (%)
same,"Dry eye TEAE, Grade 4",0 (0) n (%)
same,"Dry mouth TEAE, Any grade",14 (33) n (%)
same,"Dry mouth TEAE, Grade 1",13 (31) n (%)
same,"Dry mouth TEAE, Grade 2",1 (2) n (%)
same,"Dry mouth TEAE, Grade 3",0 (0) n (%)
same,"Dry mouth TEAE, Grade 4",0 (0) n (%)
same,"Dry skin TEAE, Any grade",7 (17) n (%)
same,"Dry skin TEAE, Grade 1",6 (14) n (%)
same,"Dry skin TEAE, Grade 2",1 (2) n (%)
same,"Dry skin TEAE, Grade 3",0 (0) n (%)
